# Assay results reported in ChEMBL document CHEMBL1201862, “PubChem BioAssay data set” (2004).
# Active and inactive are the calls of the source.
# Columns and labels:
# [1] = target: 5-hydroxytryptamine receptor 2A (Mus musculus, UniProt P35363); assay type: functional, cell-based;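 also: CHO-K1 cells with tagged receptor and beta-arrestin; agonist potency measured as compound-induced activation of the receptor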
# Mu-type opioid receptor = Mu-type opioid receptor (Homo sapiens, UniProt P35372); assay type: functional, cell-based;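 also: U2OS cells with beta-arrestin recruitment to OPRM1 by beta-gal complementation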
# [2] = T. cruzi growth inhibition in host cells, dose response, cell-based, plate reader, dry powder, set 2 (AID 652275); assay type: functional
# [3] = target: Photoreceptor-specific nuclear receptor (Homo sapiens, UniProt Q9Y5X4); assay type: functional, cell-based;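 also: CHO-S cells with Gal4-NCOR and VP16-NR2E3 two-hybrid luciferase reporter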
# [4] = target: T1, Corticotropin-releasing factor receptor 2/Corticotropin-releasing factor-binding protein (Homo sapiens, UniProt P24387+Q13324); assay: Dose Response confirmation of uHTS hits for small molecule antagonists of the CRF-binding protein and CRF-R2 receptor complex.; assay type: functional; conditions: read-out: IC50_Mean
# T1 sequence (Q13324 whole entry): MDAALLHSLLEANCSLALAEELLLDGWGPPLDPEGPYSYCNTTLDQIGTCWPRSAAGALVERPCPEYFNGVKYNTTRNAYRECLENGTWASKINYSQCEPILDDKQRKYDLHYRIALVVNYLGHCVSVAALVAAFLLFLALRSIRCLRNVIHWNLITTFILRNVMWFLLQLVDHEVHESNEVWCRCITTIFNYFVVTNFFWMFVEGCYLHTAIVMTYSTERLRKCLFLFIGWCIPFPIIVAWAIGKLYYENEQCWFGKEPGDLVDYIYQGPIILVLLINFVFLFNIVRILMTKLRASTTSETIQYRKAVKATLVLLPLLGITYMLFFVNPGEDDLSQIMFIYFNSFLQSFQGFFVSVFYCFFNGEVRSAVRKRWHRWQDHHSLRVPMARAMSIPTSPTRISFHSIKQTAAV
# T1 sequence (P24387 whole entry): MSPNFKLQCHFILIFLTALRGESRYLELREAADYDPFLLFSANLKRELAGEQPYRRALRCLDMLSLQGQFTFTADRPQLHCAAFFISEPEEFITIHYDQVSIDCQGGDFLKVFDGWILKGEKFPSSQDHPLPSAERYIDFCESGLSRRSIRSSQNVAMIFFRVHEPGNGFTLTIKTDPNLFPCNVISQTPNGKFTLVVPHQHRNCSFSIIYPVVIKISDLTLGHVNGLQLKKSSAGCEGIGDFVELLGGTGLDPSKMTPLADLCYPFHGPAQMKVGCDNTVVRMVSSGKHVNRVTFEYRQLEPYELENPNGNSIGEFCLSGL
# [5] = target: T2, Nuclear receptor subfamily 0 group B member 1 (Homo sapiens, UniProt P51843); assay type: functional, cell-based;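 also: HEK293T cells transfected with SF-1 and DAX-1 plus StAR promoter luciferase reporter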
# T2 sequence (P51843 whole entry): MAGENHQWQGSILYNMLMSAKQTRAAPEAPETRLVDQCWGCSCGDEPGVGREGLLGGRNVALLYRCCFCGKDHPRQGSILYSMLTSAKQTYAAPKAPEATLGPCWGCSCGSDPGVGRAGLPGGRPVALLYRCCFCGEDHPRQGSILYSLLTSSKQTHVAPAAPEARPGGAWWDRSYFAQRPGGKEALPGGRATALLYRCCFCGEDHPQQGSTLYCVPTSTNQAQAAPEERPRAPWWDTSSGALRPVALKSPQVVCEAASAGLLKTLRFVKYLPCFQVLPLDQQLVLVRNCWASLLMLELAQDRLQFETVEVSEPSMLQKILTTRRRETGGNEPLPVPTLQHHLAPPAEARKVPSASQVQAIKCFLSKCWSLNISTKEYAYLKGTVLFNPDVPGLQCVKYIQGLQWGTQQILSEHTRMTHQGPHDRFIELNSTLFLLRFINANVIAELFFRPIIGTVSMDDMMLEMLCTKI
# [6] = target: T1, Corticotropin-releasing factor receptor 2/Corticotropin-releasing factor-binding protein; assay: activators of CRF receptor 2 with binding protein – uHTS hits, confirmation (AID 602473); assay type: functional; conditions: read-out: EC50_Mean
# cells [7] = assay type: functional, cell-based
# Albumin = Albumin (Bos taurus, UniProt P02769); assay: Counterscreen for inhibitors of T-cell receptor (TCR)-CD3 interaction: Fluorescence-based biochemical high throughput dose response assay to identify inhibitors of T-cell receptor (TCR)-CD3 interaction using a TAMRA-labeled BSA probe.; assay type: functional
# [8] = target: T3, Heat shock factor protein 1 (Mus musculus, UniProt P38532); assay: decrease of HSF1-responsive luciferase luminescence – cell-based, NIH3T3, dose retest, confirmation (AID 2382); assay type: functional;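 also: NIH3T3 fibroblasts with HSF1-driven luciferase reporter stressed by proteasome inhibitor MG132; luminescence from HSF1-driven luciferase expression after 8 hours of MG132 stress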
# T3 sequence (P38532 whole entry): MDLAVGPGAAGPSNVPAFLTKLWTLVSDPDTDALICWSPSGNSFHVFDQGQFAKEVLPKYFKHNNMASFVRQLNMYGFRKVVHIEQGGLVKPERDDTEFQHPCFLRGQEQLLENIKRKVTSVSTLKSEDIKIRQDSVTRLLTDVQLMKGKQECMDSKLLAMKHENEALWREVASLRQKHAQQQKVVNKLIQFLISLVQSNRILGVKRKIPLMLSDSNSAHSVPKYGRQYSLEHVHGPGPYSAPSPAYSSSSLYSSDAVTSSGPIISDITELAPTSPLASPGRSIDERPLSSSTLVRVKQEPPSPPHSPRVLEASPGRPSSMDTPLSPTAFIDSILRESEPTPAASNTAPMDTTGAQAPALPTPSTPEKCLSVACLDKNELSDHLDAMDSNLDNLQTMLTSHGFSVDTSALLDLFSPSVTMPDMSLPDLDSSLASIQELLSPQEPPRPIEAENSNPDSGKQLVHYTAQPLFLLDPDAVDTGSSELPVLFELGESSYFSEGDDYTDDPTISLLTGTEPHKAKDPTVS
# [9] = inhibition of ARNT PAS-B/TACC3 complex formation – biochemical, AlphaScreen, cherry-picked samples, confirmation (AID 651703); assay type: functional, Homo sapiens;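 also: His-tagged ARNT PAS-B domain paired with GST-TACC3 E629A dimer coactivator fragment; potency of inhibitors that break up the complex and lower AlphaScreen signal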
# [10] = target: Luciferin 4-monooxygenase (Photinus pyralis, UniProt P08659); assay: inhibition of purified Photinus pyralis luciferase – biochemical, luminescence, dose response (AID 1891)
# [11] = Luminescence Cell-Based Dose Confirmation HTS to Identify Inhibitors of Platelet Dense Granule Release. [Related pubchem assays: 1663 (Primary HTS), 1678 (Summary of Project)]; assay type: functional
# [12] = target: FAD-linked sulfhydryl oxidase ALR (Homo sapiens, UniProt P55789); assay: ALR-catalysed DTT oxidation blockers – biochemical, H2O2 detection, luminescence, cherry-pick, dose response (AID 493248)
# [13] = target: Nuclear receptor subfamily 5 group A member 2 (Homo sapiens, UniProt O00482); assay type: functional, cell-based;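 also: HEK293T cells transfected with LRH-1 and a StAR promoter luciferase reporter; potency for inhibitors that lower LRH-1 driven reporter light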
# [14] = nonselective StAR promoter luciferase inhibitors – cell-based, luminescence, luciferase reporter, counter-screen for LRH-1 inverse agonist project, dose response (AID 651969); assay type: functional
# Steroidogenic factor 1 = Steroidogenic factor 1 (Homo sapiens, UniProt Q13285); assay: Counterscreen for inverse agonists of the liver receptor homolog-1 (LRH-1; NR5A2): Luminescence-based cell-based high throughput dose response assay to identify inverse agonists of the Steroidogenic Factor 1 Nuclear Receptor (SF1; NR5A1).; assay type: functional
# [15] = loss of viability in HepG2 cells – cell-based, CellTiter-Glo, cherry-picked, cytotoxicity control for Shn3 inhibitor project, dose response (AID 624134); assay type: functional
# Protein Wnt-3a = Protein Wnt-3a (Mus musculus, UniProt P27467); assay: antagonism of Wnt3a pathway luciferase reporter – Wnt-LIGHT cells, luminescence, selectivity assay for Gli-SUFU antagonist project, dose response (AID 651570); assay type: functional; conditions: read-out: IC50_Mean;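 also: Wnt-LIGHT reporter cells stimulated with conditioned medium from Wnt3a-producing cells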
# [16] = non-specific 3'UTR reporter inhibition in Clone20-Shn3RL – cell-based, Renilla luciferase, cherry-picked, counter-screen for Shn3 inhibitor project, dose response (AID 624133); assay type: functional
# [17] = reduction of Shn3 3'UTR-driven luciferase in osteoblasts – cell-based, Clone20 osteoblasts, firefly luciferase, cherry-picked, dose response (AID 624132); assay type: functional;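 also: firefly luciferase luminescence from reporter carrying the Shn3 3'UTR in osteoblasts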
# [18] = target: T4, Trace amine-associated receptor 1 (Homo sapiens, UniProt Q96RJ0); assay: Fluorescence-based cell-based high throughput dose response assay to identify agonists of the human trace amine associated receptor 1 (TAAR1).; assay type: functional
# T4 sequence (Q96RJ0 whole entry): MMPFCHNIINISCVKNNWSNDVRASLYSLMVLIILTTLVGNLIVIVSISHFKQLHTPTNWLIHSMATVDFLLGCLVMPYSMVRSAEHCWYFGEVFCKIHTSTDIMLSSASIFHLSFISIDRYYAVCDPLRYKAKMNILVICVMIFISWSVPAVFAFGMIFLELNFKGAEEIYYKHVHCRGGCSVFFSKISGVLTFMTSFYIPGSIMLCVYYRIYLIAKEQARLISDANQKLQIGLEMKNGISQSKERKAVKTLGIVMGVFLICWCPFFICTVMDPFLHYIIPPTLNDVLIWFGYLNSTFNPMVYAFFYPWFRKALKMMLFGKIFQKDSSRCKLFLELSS
# cells [19] = assay type: functional, cell-based; remark: listed apart in the source
# cells [20] = assay type: functional, cell-based; remark: listed apart in the source
# [21] = target: T4, Trace amine-associated receptor 1; assay: Counterscreen for agonists of the human trace amine associated receptor 1 (hTAAR1): Fluorescence-based cell-based high throughput dose response assay to identify hTAAR1 agonist that also desensitize TAAR1 receptor response.; assay type: functional
# [22] = target: Ras and Rab interactor 1/Tyrosine-protein kinase ABL1 (Homo sapiens, UniProt P00519+Q13671); assay type: functional;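 also: biochemical TR-FRET dose-response test measuring inhibition of binding between Rin1 and Abl proteins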
# [23] = potency of ADAM10 substrate cleavage blockers – biochemical, QFRET, dose response (AID 743254);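 also: ADAM10 enzyme with the DM2 quenched FRET peptide as substrate; EDANS fluorescence gain as the protease cuts the substrate; inhibitor potency against ADAM10 proteolytic activity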
# [24] = target: Disintegrin and metalloproteinase domain-containing protein 17 (Homo sapiens, UniProt P78536); assay: inhibition of ADAM17 substrate cleavage – biochemical, quenched FRET substrate, counter-screen for ADAM10 exosite inhibitor project, dose response (AID 743253)
# [25] = target: Adenosylmethionine-8-amino-7-oxononanoate aminotransferase (Mycobacterium tuberculosis, UniProt P9WQ81); assay: Mycobacterium tuberculosis BioA enzyme inhibitor Measured in Biochemical System Using Plate Reader - 2163-02_Inhibitor_Dose_CherryPick_Activity.; assay type: functional, Mycobacterium tuberculosis UT205
# [26] = target: Induced myeloid leukemia cell differentiation protein Mcl-1 (Homo sapiens, UniProt Q07820); assay type: functional
# NS3 = NS3 (Hepatitis C virus, UniProt A3EZJ3); assay: PubChem AID 2173; set-up: species or system Hepacivirus hominis
# INS1 = assay: INS-1E survival protection against cytokine death – cell-based, luminescence, retest, dose response (AID 449756); assay type: functional; conditions: Rattus norvegicus;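 also: cell death triggered by IL-1 beta plus TNF-alpha plus IFN-gamma mixture; protective hits raise ATP signal compared with cytokine alone wells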
# Disintegrin and metalloproteinase domain-containing protein 17, sequence (P78536 whole entry, the tested form may be a part): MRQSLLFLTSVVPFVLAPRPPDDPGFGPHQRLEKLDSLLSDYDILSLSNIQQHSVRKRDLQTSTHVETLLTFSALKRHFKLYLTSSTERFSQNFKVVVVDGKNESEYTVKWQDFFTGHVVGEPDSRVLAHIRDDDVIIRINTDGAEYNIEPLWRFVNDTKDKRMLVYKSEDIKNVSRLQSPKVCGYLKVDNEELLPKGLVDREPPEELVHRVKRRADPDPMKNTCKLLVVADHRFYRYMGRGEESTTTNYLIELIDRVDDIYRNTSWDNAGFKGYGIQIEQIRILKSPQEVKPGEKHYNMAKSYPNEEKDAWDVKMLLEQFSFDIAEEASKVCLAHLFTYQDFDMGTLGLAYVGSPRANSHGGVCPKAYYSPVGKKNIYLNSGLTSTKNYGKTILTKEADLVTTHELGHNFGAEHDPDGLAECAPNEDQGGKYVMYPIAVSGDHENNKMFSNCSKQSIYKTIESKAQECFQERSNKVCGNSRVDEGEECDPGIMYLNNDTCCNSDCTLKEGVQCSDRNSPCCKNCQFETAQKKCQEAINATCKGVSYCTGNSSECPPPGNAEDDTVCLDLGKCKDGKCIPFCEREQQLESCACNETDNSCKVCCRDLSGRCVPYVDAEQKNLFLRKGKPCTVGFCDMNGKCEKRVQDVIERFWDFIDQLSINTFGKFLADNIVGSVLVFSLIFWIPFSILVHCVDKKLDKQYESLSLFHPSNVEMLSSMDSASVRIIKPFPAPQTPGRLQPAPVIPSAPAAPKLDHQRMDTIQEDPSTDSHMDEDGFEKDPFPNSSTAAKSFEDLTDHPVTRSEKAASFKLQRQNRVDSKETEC
# Steroidogenic factor 1, sequence (Q13285 whole entry): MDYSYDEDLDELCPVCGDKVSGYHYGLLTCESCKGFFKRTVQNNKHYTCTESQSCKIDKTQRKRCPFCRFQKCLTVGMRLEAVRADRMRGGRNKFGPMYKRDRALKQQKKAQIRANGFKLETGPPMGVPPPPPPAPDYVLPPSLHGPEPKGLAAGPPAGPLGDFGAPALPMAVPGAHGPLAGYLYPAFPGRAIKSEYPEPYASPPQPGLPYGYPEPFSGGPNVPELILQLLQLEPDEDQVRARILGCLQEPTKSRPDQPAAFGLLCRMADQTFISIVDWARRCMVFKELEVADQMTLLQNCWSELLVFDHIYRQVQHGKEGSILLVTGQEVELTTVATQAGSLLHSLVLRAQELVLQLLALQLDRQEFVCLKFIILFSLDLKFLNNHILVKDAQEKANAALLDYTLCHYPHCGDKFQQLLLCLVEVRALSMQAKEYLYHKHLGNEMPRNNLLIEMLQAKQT
# Protein Wnt-3a, sequence (P27467 whole entry): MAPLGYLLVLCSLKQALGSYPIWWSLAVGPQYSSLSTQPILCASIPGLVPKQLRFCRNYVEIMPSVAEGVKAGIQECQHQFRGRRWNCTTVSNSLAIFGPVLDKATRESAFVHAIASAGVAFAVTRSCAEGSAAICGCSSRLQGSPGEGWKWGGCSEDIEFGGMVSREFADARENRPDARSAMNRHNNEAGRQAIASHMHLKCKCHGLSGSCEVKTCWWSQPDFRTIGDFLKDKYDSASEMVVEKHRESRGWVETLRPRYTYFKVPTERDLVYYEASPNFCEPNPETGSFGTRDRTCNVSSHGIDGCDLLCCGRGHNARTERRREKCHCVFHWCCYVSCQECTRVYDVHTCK
# Ras and Rab interactor 1/Tyrosine-protein kinase ABL1, sequence (P00519 whole entry): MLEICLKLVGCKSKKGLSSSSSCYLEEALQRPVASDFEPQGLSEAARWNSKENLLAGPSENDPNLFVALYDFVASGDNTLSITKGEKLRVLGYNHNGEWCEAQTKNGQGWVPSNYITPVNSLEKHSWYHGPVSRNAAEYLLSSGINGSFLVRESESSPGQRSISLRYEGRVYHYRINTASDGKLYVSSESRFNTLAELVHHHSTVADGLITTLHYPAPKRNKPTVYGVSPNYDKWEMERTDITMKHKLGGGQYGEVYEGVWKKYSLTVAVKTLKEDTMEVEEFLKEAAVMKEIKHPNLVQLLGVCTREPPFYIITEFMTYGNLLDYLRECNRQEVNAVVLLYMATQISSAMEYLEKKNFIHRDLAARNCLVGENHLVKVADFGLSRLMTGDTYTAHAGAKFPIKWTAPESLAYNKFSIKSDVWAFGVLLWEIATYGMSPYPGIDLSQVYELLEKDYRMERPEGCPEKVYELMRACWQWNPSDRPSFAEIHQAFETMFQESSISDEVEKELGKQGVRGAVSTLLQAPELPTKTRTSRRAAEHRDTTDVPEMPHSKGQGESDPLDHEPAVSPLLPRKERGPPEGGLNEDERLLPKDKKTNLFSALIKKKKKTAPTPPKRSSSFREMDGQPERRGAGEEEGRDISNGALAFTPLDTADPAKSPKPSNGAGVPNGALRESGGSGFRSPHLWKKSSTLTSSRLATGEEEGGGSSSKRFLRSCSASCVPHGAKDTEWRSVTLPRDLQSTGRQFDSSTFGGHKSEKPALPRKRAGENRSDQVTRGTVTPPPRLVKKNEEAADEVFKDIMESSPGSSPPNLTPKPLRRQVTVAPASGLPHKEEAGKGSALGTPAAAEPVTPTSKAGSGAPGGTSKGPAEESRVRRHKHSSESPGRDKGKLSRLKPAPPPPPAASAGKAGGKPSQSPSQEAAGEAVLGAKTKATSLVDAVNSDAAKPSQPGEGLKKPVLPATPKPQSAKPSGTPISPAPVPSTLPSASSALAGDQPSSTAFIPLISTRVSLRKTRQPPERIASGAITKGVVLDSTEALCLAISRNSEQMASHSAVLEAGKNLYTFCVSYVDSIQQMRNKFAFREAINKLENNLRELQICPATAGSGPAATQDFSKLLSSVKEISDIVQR
# Ras and Rab interactor 1/Tyrosine-protein kinase ABL1, sequence (Q13671 whole entry): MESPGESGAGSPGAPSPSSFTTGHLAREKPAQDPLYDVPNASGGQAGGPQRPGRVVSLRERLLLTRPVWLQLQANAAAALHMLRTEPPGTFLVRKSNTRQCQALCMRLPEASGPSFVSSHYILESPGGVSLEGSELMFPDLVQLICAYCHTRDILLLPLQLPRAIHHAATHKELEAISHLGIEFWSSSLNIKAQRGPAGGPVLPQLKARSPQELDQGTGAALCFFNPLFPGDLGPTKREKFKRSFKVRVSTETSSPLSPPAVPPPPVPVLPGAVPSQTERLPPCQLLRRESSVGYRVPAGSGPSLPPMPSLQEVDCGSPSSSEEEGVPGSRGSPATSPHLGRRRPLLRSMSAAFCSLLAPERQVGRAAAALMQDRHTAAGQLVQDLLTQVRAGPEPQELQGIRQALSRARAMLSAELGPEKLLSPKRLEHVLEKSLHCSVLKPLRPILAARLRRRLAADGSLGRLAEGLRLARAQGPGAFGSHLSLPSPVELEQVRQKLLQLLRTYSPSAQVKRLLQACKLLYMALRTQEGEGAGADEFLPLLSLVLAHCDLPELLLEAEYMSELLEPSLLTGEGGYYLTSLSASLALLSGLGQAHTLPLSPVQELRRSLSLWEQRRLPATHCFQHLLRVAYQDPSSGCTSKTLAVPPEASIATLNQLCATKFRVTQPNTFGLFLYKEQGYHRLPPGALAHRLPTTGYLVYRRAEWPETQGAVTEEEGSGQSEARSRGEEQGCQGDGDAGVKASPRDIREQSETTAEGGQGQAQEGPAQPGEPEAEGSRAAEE
# Photoreceptor-specific nuclear receptor, sequence (Q9Y5X4 whole entry, the tested form may be a part): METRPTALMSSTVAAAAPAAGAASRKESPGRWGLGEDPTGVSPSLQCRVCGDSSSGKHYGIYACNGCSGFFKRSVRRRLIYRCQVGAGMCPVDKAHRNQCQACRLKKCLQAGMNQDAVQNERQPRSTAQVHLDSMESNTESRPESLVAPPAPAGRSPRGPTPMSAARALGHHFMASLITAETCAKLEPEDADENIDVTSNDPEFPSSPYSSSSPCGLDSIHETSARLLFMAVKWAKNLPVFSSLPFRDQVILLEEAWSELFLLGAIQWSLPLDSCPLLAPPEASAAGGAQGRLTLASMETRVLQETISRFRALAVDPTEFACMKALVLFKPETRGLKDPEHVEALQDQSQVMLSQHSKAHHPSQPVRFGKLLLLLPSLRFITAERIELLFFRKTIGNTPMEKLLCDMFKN
# Nuclear receptor subfamily 5 group A member 2, sequence (O00482 whole entry): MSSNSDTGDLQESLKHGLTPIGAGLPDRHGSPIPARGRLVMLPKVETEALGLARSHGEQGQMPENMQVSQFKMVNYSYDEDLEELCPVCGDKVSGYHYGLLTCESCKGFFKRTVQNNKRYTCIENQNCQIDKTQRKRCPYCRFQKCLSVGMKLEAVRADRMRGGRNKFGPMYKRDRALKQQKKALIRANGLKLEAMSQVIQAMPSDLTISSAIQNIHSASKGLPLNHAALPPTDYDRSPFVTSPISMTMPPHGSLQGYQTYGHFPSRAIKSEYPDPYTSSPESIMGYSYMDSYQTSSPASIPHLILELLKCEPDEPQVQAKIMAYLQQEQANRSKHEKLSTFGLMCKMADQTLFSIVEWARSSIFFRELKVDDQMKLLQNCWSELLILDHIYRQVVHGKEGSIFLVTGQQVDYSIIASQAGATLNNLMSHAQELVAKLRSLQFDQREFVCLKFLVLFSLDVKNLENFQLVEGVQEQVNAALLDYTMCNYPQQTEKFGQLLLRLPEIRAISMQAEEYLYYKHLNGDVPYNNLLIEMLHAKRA
# 5-hydroxytryptamine receptor 2A, sequence (P35363 whole entry): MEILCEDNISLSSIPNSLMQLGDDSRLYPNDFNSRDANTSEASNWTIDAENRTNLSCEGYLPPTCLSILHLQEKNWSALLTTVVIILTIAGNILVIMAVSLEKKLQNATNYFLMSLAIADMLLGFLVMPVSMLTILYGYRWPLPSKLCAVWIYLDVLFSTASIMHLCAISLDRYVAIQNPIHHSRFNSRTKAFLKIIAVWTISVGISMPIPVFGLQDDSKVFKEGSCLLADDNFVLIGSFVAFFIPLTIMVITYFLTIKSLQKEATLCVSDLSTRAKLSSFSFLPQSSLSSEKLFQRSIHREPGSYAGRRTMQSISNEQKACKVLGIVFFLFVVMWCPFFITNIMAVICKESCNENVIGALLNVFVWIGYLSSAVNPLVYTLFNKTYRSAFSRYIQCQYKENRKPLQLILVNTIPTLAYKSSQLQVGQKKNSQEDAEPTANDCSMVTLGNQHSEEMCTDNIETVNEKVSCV
smiles,measurement,setting,value
Cc1cccc(C)c1OCC(O)CN1CCN(c2ccccc2)CC1 (centres undefined),EC50,[1],76.1 µM (inactive)
same,EC50,Mu-type opioid receptor,92.5 µM (inactive)
CC(C)N1C[C@H](C)[C@@H](CN(C)Cc2ccc(Oc3ccccc3)cc2)Oc2c(C(=O)Nc3ccncc3)cccc2C1=O,AC50,[2],0.167 µM (active)
c1ccc(CNc2ncnc3sccc23)cc1,IC50,[3],3.7 µM (active)
Cn1ccc(C(=O)Nc2sc3c(c2C(N)=O)CCCCC3)n1,IC50,[4],> 47.1 µM (inactive)
same,IC50,[5],> 2.5 µM (active)
same,EC50,[6],> 53 µM (inactive)
same,IC50,cells [7],> 67.5 µM (inactive)
COc1cc(OC)cc(C(=O)N/N=C/c2ccc(OC)c(COc3ccc4ccccc4c3)c2)c1,IC50,Albumin,> 94.1 µM (inactive)
NNC(=O)c1ccc(O)cc1O,EC50,[8],> 195 µM (not active)
same,AC50,[9],91.8 µM (active)
same,EC50,[10],> 112 µM (not active)
same,EC50,[11],> 112 µM (not active)
same,AC50,[12],16 µM (active)
COc1ccnc(Oc2ccccc2)c1C(=O)N=CNOCc1ccccc1F,IC50,[13],3.99 µM (active)
same,IC50,[14],26.1 µM (inactive)
same,IC50,Steroidogenic factor 1,3.65 µM (active)
Cc1cc(Br)c(S(=O)(=O)NCc2ccncc2)cc1C,AC50,[15],2.37 µM (active)
same,IC50,Protein Wnt-3a,3.16 µM (active)
same,AC50,[16],3.34 µM (active)
same,AC50,[17],1.41 µM (active)
O=C(Nc1ncccc1O)c1ccc(S(=O)(=O)N2CCCCCC2)cc1,IC50,[5],31.7 µM (inactive)
same,IC50,cells [7],> 67.5 µM (inactive)
COc1ccccc1CC(=O)NCCc1ccccc1,EC50,[18],3.18 µM (active)
same,IC50,cells [19],> 29.9 µM (inactive)
same,EC50,cells [20],> 29.9 µM (inactive)
same,IC50,[21],9 µM (active)
O=C(Nc1ccc(C(=O)N2CCOCC2)cc1)c1cccc([N+](=O)[O-])c1,IC50,[13],15 µM (inactive)
same,IC50,[14],35.9 µM (inactive)
same,IC50,Steroidogenic factor 1,1.09 µM (active)
O=C(OCCOc1ccc(Cl)cc1)c1cc(S(=O)(=O)N2CCCCC2)ccc1N1CCOCC1,AC50,[15],> 70 µM (inactive)
same,IC50,[3],4.3 µM (active)
same,AC50,[16],6.64 µM (active)
same,AC50,[17],1.97 µM (active)
CN(Cc1ccccc1)S(=O)(=O)c1ccc(Cl)c(C(=O)N2CCC2)c1,IC50,[22],32.9 µM (inactive)
CC1(Cc2ccc(Cl)c(Cl)c2)C(=O)Nc2ccc(S(=O)(=O)NC3CCCCC3)cc21 (centres undefined),IC50,[23],8.03 µM (active)
same,IC50,[24],> 69.5 µM (inactive)
O=C(Cc1ccccc1)N1CC[C@@H]2[C@H](CO)Nc3ccc(Br)cc3[C@@H]21,AC50,[25],3.09 µM (active)
COc1ccc(CCNC(=O)c2ccc(NC3=NC4CS(=O)(=O)CC4S3)cc2)cc1OC (centres undefined),IC50,[22],26.3 µM (inactive)
CN1C(=O)C(=CN2CCN(C(=O)c3ccco3)CC2)C(=O)N(C)C1=S,EC50,[18],4.85 µM (active)
same,IC50,cells [19],> 29.9 µM (inactive)
same,EC50,cells [20],> 29.9 µM (inactive)
same,IC50,[21],> 29.9 µM (inactive)
Brc1ccc(CN2CCN(c3ccccn3)CC2)s1,EC50,[1],0.0705 µM (active)
same,EC50,Mu-type opioid receptor,92.5 µM (inactive)
CC(O)(c1cccc(F)c1)c1nc(/C=C/c2ccccc2)cs1 (centres undefined),IC50,[23],25 µM (inactive)
same,IC50,[24],> 69.5 µM (inactive)
O=C(CN1CCOCC1)N1CCCCN2[C@@H](CO)[C@H](c3ccc(-c4ccccc4F)cc3)[C@@H]2C1,AC50,[2],0.84 µM (active)
COc1ccc(C(C)NC(=O)Nc2ccc(C(C)=O)cc2)cc1OC (centres undefined),AC50,[25],3.72 µM (active)
Nc1c(C(=O)NCC2CCCO2)sc2nc3c(c(-c4ccco4)c12)CC/C3=C\c1ccco1 (centres undefined),IC50,Albumin,> 94.1 µM (inactive)
same,IC50,[26],1.22 µM (active)
same,IC50,NS3,3.91 µM (active)
CCCC(C)C(=O)Nc1nc(C)c(-c2csc(Nc3ccc(Cl)cc3)n2)s1 (centres undefined),IC50,Protein Wnt-3a,13.8 µM (active)
same,AC50,INS1,4.18 µM (active)
